The values below come from PubChem BioAssay (NCI).

Some test systems named below: CCRF-CEM leukemia; EKVX NSCLC; MDA-N; CAKI-1 renal; OVCAR-8 ovarian; NCI-H522 lung; HCT-15 colon; LOX IMVI melanoma; UACC-257 melanoma; K-562 leukemia.
Common to all, as to assay: DTP human tumour cell line panel, 48 h

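Dose response: 5 concentrations. Exposure: 48 h. Format: 96-well plates. Endpoint: linear interpolation; highest concentration if not reached. TGI: concentration producing complete growth inhibition.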

As a reminder, the TGI is the concentration at which net growth stops. A low value points to more potent growth arrest. On to `CC(C)=C[C@@H]1C[C@H](C)[C@H]2CC[C@H](C)[C@H]3C(=O)C(O)=C(C)C(=O)[C@]123`, for which the TGI in the experiment on CCRF-CEM leukemia, in the experiment on EKVX NSCLC, in the experiment on MDA-N, in the experiment with CAKI-1 renal, in the experiment on OVCAR-8 ovarian and in the experiment with NCI-H522 lung was above 100 µM throughout. In addition, the TGI in the experiment on HCT-15 colon, in the experiment with LOX IMVI melanoma, in the experiment with UACC-257 melanoma and in the experiment on K-562 leukemia was above 100 µM in each case.
On to `CNc1nc(OC)c2c(n1)[n+](C)cn2C`, for which the TGI in the experiment with CCRF-CEM leukemia, in the experiment with EKVX NSCLC, in the experiment with MDA-N, in the experiment on CAKI-1 renal, in the experiment with OVCAR-8 ovarian and in the experiment with NCI-H522 lung was above 100 µM throughout. The TGI in the experiment on HCT-15 colon, in the experiment with LOX IMVI melanoma, in the experiment on UACC-257 melanoma and in the experiment on K-562 leukemia was above 100 µM each time.
As to `N#Cc1c(N)n(-c2nc3ccccc3s2)c(=O)c2cc([N+](=O)[O-])ccc12`, the TGI was 18.9 µM with CCRF-CEM leukemia; above 56.3 µM in the experiment on EKVX NSCLC; above 82.7 µM with MDA-N; 58.5 µM with CAKI-1 renal; 43.9 µM with OVCAR-8 ovarian; 25.6 µM with NCI-H522 lung. Also, the TGI amounted to 19.4 µM in the experiment with HCT-15 colon, 19.7 µM in the experiment with LOX IMVI melanoma, 69.3 µM in the experiment on UACC-257 melanoma and 38.6 µM in the experiment with K-562 leukemia.
Regarding `CO/C(N)=C(\C#N)N=Cc1cccs1`, the TGI was above 100 µM with CCRF-CEM leukemia; above 100 µM with EKVX NSCLC; 90.1 µM in the experiment with MDA-N; above 100 µM in the experiment on CAKI-1 renal; above 100 µM in the experiment on OVCAR-8 ovarian; 79.6 µM in the experiment with NCI-H522 lung. Besides, the TGI with HCT-15 colon, in the experiment with LOX IMVI melanoma, in the experiment on UACC-257 melanoma and with K-562 leukemia was above 100 µM throughout.
As to `CC(C)(C)OC(=O)NCCCCC1NC(=O)[C@@H]2Cc3c([nH]c4ccccc34)C(c3ccccc3)N2C1=O` (stereo not given in full), the TGI in the experiment on CCRF-CEM leukemia, with EKVX NSCLC, with MDA-N, with CAKI-1 renal, in the experiment on OVCAR-8 ovarian and in the experiment with NCI-H522 lung was above 100 µM in each case. Besides, the TGI is above 100 µM in the experiment with HCT-15 colon, 56.4 µM with LOX IMVI melanoma, above 100 µM with UACC-257 melanoma and above 100 µM with K-562 leukemia.
Consider `CCOC(=O)C1(NC(=O)OC(C)(C)C)CCc2[nH]oc(=O)c2C1` (stereo not given), for which the TGI in the experiment with CCRF-CEM leukemia, in the experiment on EKVX NSCLC, in the experiment on MDA-N, in the experiment with CAKI-1 renal, in the experiment on OVCAR-8 ovarian and with NCI-H522 lung was above 100 µM throughout. Also, the TGI in the experiment with HCT-15 colon, with LOX IMVI melanoma, in the experiment with UACC-257 melanoma and with K-562 leukemia was above 100 µM each time.
For the compound `COc1ccc(OC)c2c(Nc3ccc(S(=O)(=O)O)c4cc(S(=O)(=O)O)cc(S(=O)(=O)O)c34)cc(C)nc12`, the TGI in the experiment with CCRF-CEM leukemia, in the experiment with EKVX NSCLC, with MDA-N, with CAKI-1 renal, with OVCAR-8 ovarian and in the experiment with NCI-H522 lung was above 100 µM in each case. The TGI with HCT-15 colon, with LOX IMVI melanoma, in the experiment with UACC-257 melanoma and in the experiment with K-562 leukemia was above 100 µM each time.
As to `O=C(NCc1ccc(Cl)c(Cl)c1)c1nc2ccccc2nc1NCc1ccc(Cl)c(Cl)c1`, the TGI in the experiment on CCRF-CEM leukemia, with EKVX NSCLC, in the experiment with MDA-N, with CAKI-1 renal, in the experiment with OVCAR-8 ovarian and in the experiment on NCI-H522 lung was above 100 µM in each case. Moreover, the TGI in the experiment with HCT-15 colon, in the experiment with LOX IMVI melanoma, in the experiment with UACC-257 melanoma and with K-562 leukemia was above 100 µM in each case.
Regarding `Cc1nnc(N)s/c1=N/O`, the TGI with CCRF-CEM leukemia, with EKVX NSCLC, in the experiment on MDA-N, with CAKI-1 renal, with OVCAR-8 ovarian and in the experiment on NCI-H522 lung was above 100 µM in each case. In addition, the TGI in the experiment on HCT-15 colon, with LOX IMVI melanoma, in the experiment on UACC-257 melanoma and with K-562 leukemia was above 100 µM in each case.
